# Test results taken from patent US20110117200A1 (ACTAVIS GROUP PTC EHF, priority 2008, published 2011).
# Counter-ions that a name gives are not always drawn.
# Columns and labels:
# [1] = sunflower oil dispersant; for Particle size (D50): size below which 50% of the particles by volume are found; for Particle size (D90): size below which 90% of the particles by volume are found
# Method: Particle Size Distribution (PSD)” is determined by laser diffraction in a Malvern Master Sizer 2000 equipment or its equivalent: Measurement conditions:
# As used herein, “Particle Size Distribution (P.S.D)” means the cumulative volume size distribution of equivalent spherical diameters as determined by laser diffraction in Malvern Master Sizer 2000 equipment or its equivalent.
# As used herein, Dx means that X percent of the particles have a diameter less than a specified diameter D. Thus, a D90 or d(0.9) of less than 300 microns means that 90 volume-percent of the particles in a composition have a diameter less than 300 microns.
# The important characteristics of the PSD were the (D90), which is the size, in microns, below which 90% of the particles by volume are found, and the (D50), which is the size, in microns, below which 50% of the particles by volume are found.
# [2] = cited from earlier work
# [3] = target: B-form of the enzyme monoamine oxidase (MAO-B) (Homo sapiens, UniProt P27338); conditions: qualitative statement in the background; cited from earlier work
# B-form of the enzyme monoamine oxidase (MAO-B), sequence (P27338 whole entry, species assumed): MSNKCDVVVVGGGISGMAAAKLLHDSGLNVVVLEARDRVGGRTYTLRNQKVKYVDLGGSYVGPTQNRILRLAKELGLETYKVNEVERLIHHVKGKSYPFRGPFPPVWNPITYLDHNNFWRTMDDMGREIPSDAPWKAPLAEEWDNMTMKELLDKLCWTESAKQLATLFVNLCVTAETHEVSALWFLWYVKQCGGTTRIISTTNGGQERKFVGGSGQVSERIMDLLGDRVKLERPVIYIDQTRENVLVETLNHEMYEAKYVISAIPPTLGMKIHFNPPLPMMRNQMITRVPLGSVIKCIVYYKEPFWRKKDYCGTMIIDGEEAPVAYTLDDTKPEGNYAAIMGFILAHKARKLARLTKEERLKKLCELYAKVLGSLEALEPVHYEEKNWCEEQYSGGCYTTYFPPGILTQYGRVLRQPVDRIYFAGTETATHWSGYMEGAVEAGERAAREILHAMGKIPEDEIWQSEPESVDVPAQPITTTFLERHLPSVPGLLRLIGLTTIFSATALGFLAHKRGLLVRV
Structure (SMILES),Particle size (D50) [1] [microns],Particle size (D90) [1],other results
"C#CCN[C@@H]1CCc2ccccc21 [Example 1, rasagiline mesylate]",663,1407 microns,–
"C#CCN[C@@H]1CCc2ccccc21 [Example 2, rasagiline mesylate]",864,1496 microns,–
"C#CCN[C@@H]1CCc2ccccc21.CS(=O)(=O)O [Rasagiline mesylate, rasagiline mesylate]",–,–,Solubility in ethanol ([2]; ethanol): freely soluble; Solubility in isopropanol ([2]; isopropanol): sparingly soluble; Solubility in water ([2]; water): freely soluble
"C#CCN[C@@H]1CCc2ccccc21 [Rasagiline, R(+)—N-propargyl-1-aminoindan]",–,–,Inhibition of MAO-B [3]: selective inhibitor

# More lines, main results first:
Particle size (D50) [1] [microns],Particle size (D90) [1],Structure (SMILES),other results
–,less than 300 microns,"C#CCN[C@@H]1CCc2ccccc21 [Example 3, rasagiline mesylate]",–
–,less than 400 microns,"C#CCN[C@@H]1CCc2ccccc21 [Example 4, rasagiline mesylate]",–
